Molecular target: MCH receptor (Homo sapiens, UniProt Q99705)
Experiment: High throughput functional screening FLIPR/FDSS6000: inhibition of MCH-evoked intracellular Ca2+ changes
Type: cell-based
Details: class by percent of control at 10^-7 M or IC50
Procedure, shortened: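 Fluo4 fluorescence (Ex 488 nm, Em 530 nm) tracked MCH-evoked [Ca2+]i transients over 290 s by FLIPR or FDSS. Cells carried a constitutively active, non-endogenous receptor version. Compounds were added 3 min before a 50 nM MCH challenge.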

Q: Which class does the source give for `Cc1cc(C)c(NC(=S)N[C@H]2CC[C@@H](Nc3nc(N(C)C)c4ccccc4n3)CC2)cc1C` [compound 293, N-(cis-4-{[4-(dimethylamino)quinazolin-2-yl]amino}cyclohexyl)-N′-(2,4,5-trimethylphenyl)thiourea] here?
A: 1 (Class 1: The value of percent of control at 10^−7 M was less than 40% or the value of IC50 was less than 50 nM.)

Q: For `CN(C)c1nc(N[C@H]2CC[C@@H](NC(=S)NCc3ccc(Cl)cc3Cl)CC2)nc2ccccc12` [compound 294], which class is on record?
A: 3 (Class 3: The value of percent of control at 10^−7 M was more than 60% or the value of IC50 was more than 200 nM.)

Q: For `CN(C)c1nc(N[C@H]2CC[C@@H](NC(=S)Nc3cc(Br)ccc3Br)CC2)nc2ccccc12` [compound 295], which class is on record?
A: 3 (Class 3: The value of percent of control at 10^−7 M was more than 60% or the value of IC50 was more than 200 nM.)

Q: `COc1ccc(OC)c(CCNC(=S)N[C@H]2CC[C@@H](Nc3nc(N(C)C)c4ccccc4n3)CC2)c1` [compound 296, N-[2-(2,5-dimethoxyphenyl)ethyl]-N′-(cis-4-{[4-(dimethylamino)quinazolin-2-yl]amino}cyclohexyl)thiourea] was tested. Which class did it give?
A: 2 (Class 2: The value of percent of control at 10^−7 M was from 40% to 60% or the value of IC50 was from 50 nM to 200 nM.)

Q: `CN(C)c1nc(N[C@H]2CC[C@@H](NC(=S)Nc3ccccc3-c3ccccc3)CC2)nc2ccccc12` [compound 297, N-biphenyl-2-yl-N′-(cis-4-{[4-(dimethylamino)quinazolin-2-yl]amino}cyclohexyl)thiourea] was tested. Which class did it give?
A: 1 (Class 1: The value of percent of control at 10^−7 M was less than 40% or the value of IC50 was less than 50 nM.)

Q: For `CN(C)c1nc(N[C@H]2CC[C@@H](NC(=S)Nc3cc([N+](=O)[O-])ccc3Cl)CC2)nc2ccccc12` [compound 298], which class is on record?
A: 3 (Class 3: The value of percent of control at 10^−7 M was more than 60% or the value of IC50 was more than 200 nM.)

Q: How did the class turn out when `CN(C)c1nc(N[C@H]2CC[C@@H](NC(=S)Nc3ccccc3C#N)CC2)nc2ccccc12` [compound 299] was run?
A: 3 (Class 3: The value of percent of control at 10^−7 M was more than 60% or the value of IC50 was more than 200 nM.)

Q: `CN(C)c1nc(N[C@H]2CC[C@@H](NC(=S)NCc3ccccc3F)CC2)nc2ccccc12` [compound 300] was tested. Which class did it give?
A: 2 (Class 2: The value of percent of control at 10^−7 M was from 40% to 60% or the value of IC50 was from 50 nM to 200 nM.)

Q: For `COc1ccc([N+](=O)[O-])cc1NC(=S)N[C@H]1CC[C@@H](Nc2nc(N(C)C)c3ccccc3n2)CC1` [compound 301], which class is on record?
A: 3 (Class 3: The value of percent of control at 10^−7 M was more than 60% or the value of IC50 was more than 200 nM.)

Q: Which class does the source give for `Cc1cc([N+](=O)[O-])ccc1NC(=S)N[C@H]1CC[C@@H](Nc2nc(N(C)C)c3ccccc3n2)CC1` [compound 302, N-(cis-4-{[4-(dimethylamino)quinazolin-2-yl]amino}cyclohexyl)-N′-(2-methyl-4-nitrophenyl)thiourea] here?
A: 1 (Class 1: The value of percent of control at 10^−7 M was less than 40% or the value of IC50 was less than 50 nM.)

Q: With `Cc1ccccc1CNC(=S)N[C@H]1CC[C@@H](Nc2nc(N(C)C)c3ccccc3n2)CC1` [compound 303, N-(cis-4-{[4-(dimethylamino)quinazolin-2-yl]amino}cyclohexyl)-N′-(2-methylbenzyl)thiourea] as the compound, how does the class read?
A: 2 (Class 2: The value of percent of control at 10^−7 M was from 40% to 60% or the value of IC50 was from 50 nM to 200 nM.)

Q: How did the class turn out when `COc1ccc(CNC(=S)N[C@H]2CC[C@@H](Nc3nc(N(C)C)c4ccccc4n3)CC2)cc1OC` [compound 304] was run?
A: 3 (Class 3: The value of percent of control at 10^−7 M was more than 60% or the value of IC50 was more than 200 nM.)

Q: `CN(C)c1nc(N[C@H]2CC[C@@H](NC(=S)NCc3cccc(Cl)c3)CC2)nc2ccccc12` [compound 305, N-(3-chlorobenzyl)-N′-(cis-4-{[4-(dimethylamino)quinazolin-2-yl]amino}cyclohexyl)thiourea] was tested. Which class did it give?
A: 1 (Class 1: The value of percent of control at 10^−7 M was less than 40% or the value of IC50 was less than 50 nM.)

Q: `CCOC(=O)c1cccc(NC(=S)N[C@H]2CC[C@@H](Nc3nc(N(C)C)c4ccccc4n3)CC2)c1` [compound 306] was tested. Which class did it give?
A: 1 (Class 1: The value of percent of control at 10^−7 M was less than 40% or the value of IC50 was less than 50 nM.)

Q: Which class does the source give for `CCc1cccc(NC(=S)N[C@H]2CC[C@@H](Nc3nc(N(C)C)c4ccccc4n3)CC2)c1` [compound 307] here?
A: 2 (Class 2: The value of percent of control at 10^−7 M was from 40% to 60% or the value of IC50 was from 50 nM to 200 nM.)

Q: With `CN(C)c1nc(N[C@H]2CC[C@@H](NC(=S)NCc3cccc(F)c3)CC2)nc2ccccc12` [compound 308, N-(cis-4-{[4-(dimethylamino)quinazolin-2-yl]amino}cyclohexyl)-N′-(3-fluorobenzyl)thiourea] as the compound, how does the class read?
A: 2 (Class 2: The value of percent of control at 10^−7 M was from 40% to 60% or the value of IC50 was from 50 nM to 200 nM.)

Q: How did the class turn out when `COc1cccc(CNC(=S)N[C@H]2CC[C@@H](Nc3nc(N(C)C)c4ccccc4n3)CC2)c1` [compound 309, N-(cis-4-{[4-(dimethylamino)quinazolin-2-yl]amino}cyclohexyl)-N′-(3-methoxybenzyl)thiourea] was run?
A: 2 (Class 2: The value of percent of control at 10^−7 M was from 40% to 60% or the value of IC50 was from 50 nM to 200 nM.)

Q: `Cc1cccc(CNC(=S)N[C@H]2CC[C@@H](Nc3nc(N(C)C)c4ccccc4n3)CC2)c1` [compound 310, N-(cis-4-{[4-(dimethylamino)quinazolin-2-yl]amino}cyclohexyl)-N′-(3-methylbenzyl)thiourea] was tested. Which class did it give?
A: 2 (Class 2: The value of percent of control at 10^−7 M was from 40% to 60% or the value of IC50 was from 50 nM to 200 nM.)

Q: `CN(C)c1nc(N[C@H]2CC[C@@H](NC(=S)Nc3ccc(Br)c(Cl)c3)CC2)nc2ccccc12` [compound 311] was tested. Which class did it give?
A: 3 (Class 3: The value of percent of control at 10^−7 M was more than 60% or the value of IC50 was more than 200 nM.)

Q: `Cc1cc(NC(=S)N[C@H]2CC[C@@H](Nc3nc(N(C)C)c4ccccc4n3)CC2)ccc1Br` [compound 312] was tested. Which class did it give?
A: 3 (Class 3: The value of percent of control at 10^−7 M was more than 60% or the value of IC50 was more than 200 nM.)

Q: For `CN(C)c1nc(N[C@H]2CC[C@@H](NC(=S)Nc3ccc(C(=O)O)cc3)CC2)nc2ccccc12` [compound 313], which class is on record?
A: 3 (Class 3: The value of percent of control at 10^−7 M was more than 60% or the value of IC50 was more than 200 nM.)

Q: `CN(C)c1nc(N[C@H]2CC[C@@H](NC(=S)Nc3ccc(Cl)cc3C(F)(F)F)CC2)nc2ccccc12` [compound 314, N-[4-chloro-2-(trifluoromethyl)phenyl]-N′-(cis-4-{[4-(dimethylamino)quinazolin-2-yl]amino}cyclohexyl)thiourea] was tested. Which class did it give?
A: 1 (Class 1: The value of percent of control at 10^−7 M was less than 40% or the value of IC50 was less than 50 nM.)

Q: For `CCCCCCCCCCc1ccc(NC(=S)N[C@H]2CC[C@@H](Nc3nc(N(C)C)c4ccccc4n3)CC2)cc1` [compound 315], which class is on record?
A: 3 (Class 3: The value of percent of control at 10^−7 M was more than 60% or the value of IC50 was more than 200 nM.)

Q: With `Cc1cc(F)ccc1NC(=S)N[C@H]1CC[C@@H](Nc2nc(N(C)C)c3ccccc3n2)CC1` [compound 316, N-(cis-4-{[4-(dimethylamino)quinazolin-2-yl]amino}cyclohexyl)-N′-(4-fluoro-2-methylphenyl)thiourea] as the compound, how does the class read?
A: 1 (Class 1: The value of percent of control at 10^−7 M was less than 40% or the value of IC50 was less than 50 nM.)
